Measured values reported in patent US20060069132A1, “Azolecarboxamide herbicides” (priority 2004, published 2006).

Assays:
blackgrass = assay: Test B postemergence herbicide test; format: in vivo, Alopecurus myosuroides
Summary of the method: (§1)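 Postemergence plants were sprayed with formulated test chemicals at 2 to 18 cm height (1- to 4-leaf stage); paddy species were grown to the 2-leaf stage. After 13 to 15 days in a greenhouse, injury was rated visually against untreated controls on a 0–100 scale (0 = no effect, 100 = complete control).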

morningglory = assay: Test B pre-/postemergence herbicide test; format: in vivo, Ipomoea coccinea
Summary of the method: (§2)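 Seeds were planted and treated preemergence with compounds formulated in a non-phytotoxic solvent mixture containing surfactant, while plants at the 1- to 4-leaf stage (2 to 18 cm) received postemergence sprays. Flooded paddy plants were grown to the 2-leaf stage. After 13 to 15 days in a greenhouse, injury was visually rated 0–100 against untreated controls.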

corn = assay: Test B pre-/postemergence herbicide test; format: in vivo, Zea mays
Summary of the method: (§3)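 Flooded paddy rice and barnyardgrass were treated at the 2-leaf stage; upland plantings received compound either on sown seed or on 1- to 4-leaf seedlings. All were kept 13–15 days in a greenhouse and scored visually, 0–100, relative to untreated plants.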

cocklebur = assay: Test B pre-/postemergence herbicide test; format: in vivo, Xanthium strumarium
Summary of the method: as §2

wheat = assay: Test B postemergence herbicide test; format: in vivo, Triticum aestivum; parameters: key to Wheat plant response rating: 0 = no effect, 100 = complete control
Summary of the method: (§4)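 Each value is a visual 0–100 response rating taken against controls 13 to 15 days after treatment in the greenhouse. Plants received formulated chemical postemergence at the 1- to 4-leaf stage or, in flooded paddy, at the 2-leaf stage.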

giant foxtail = assay: Test B pre-/postemergence herbicide test; format: in vivo, Setaria faberi
Summary of the method: as §3

[1] = tested on: small flower umbrella sedge; assay: Test B flooded paddy test; format: in vivo, Cyperus difformis; settings: 1000 g ai/ha, scale 0 to 100 (0 no effect, 100 complete control)
Summary of the method: as §1

lambsquarters = assay: Test B pre-/postemergence herbicide test; format: in vivo, Chenopodium album
Summary of the method: as §3

rice [2] = assay: Test B flooded paddy test; format: in vivo, Oryza sativa; settings: 1000 g ai/ha, scale 0 to 100 (0 no effect, 100 complete control)
Summary of the method: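 After treating 2-leaf paddy plants or 2–18 cm postemergence plants (1 to 4 leaves) with formulated chemical, researchers kept them in a greenhouse for 13–15 days. Effects were judged visually versus controls: 0 indicates none, 100 total control.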

rice [3] = assay: Test B pre-/postemergence herbicide test; format: in vivo, Oryza sativa; settings: 0 = no effect, 100 = complete control, preemergence; for Rice plant response rating (0 to 100 scale): 125 g ai/ha; for Plant response rating, Rice: 500 g ai/ha, visual rating
Summary of the method: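 Evaluation is visual, comparing treated with control plants on a scale where 0 means no effect and 100 means full control. Treatments were preemergence, or postemergence on seedlings 2–18 cm tall, and held 13–15 days in the greenhouse.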

barnyardgrass [4] = assay: Test B pre-/postemergence herbicide test; format: in vivo, Echinochloa crus-galli
Summary of the method: as §2

Surinam grass = assay: Test B pre-/postemergence herbicide test; format: in vivo, Urochloa decumbens
Summary of the method: as §3

pigweed = assay: Test B pre-/postemergence herbicide test; format: in vivo, Amaranthus retroflexus
Summary of the method: as §3

large crabgrass = assay: Test B pre-/postemergence herbicide test; format: in vivo, Digitaria sanguinalis
Summary of the method: as §3

velvetleaf = assay: Test B pre-/postemergence herbicide test; format: in vivo, Abutilon theophrasti
Summary of the method: as §3

wild oat = assay: Test B postemergence herbicide test; format: in vivo, Avena fatua
Summary of the method: as §4

barnyardgrass [5] = assay: Test B flooded paddy test; format: in vivo, Echinochloa crus-galli; settings: 1000 g ai/ha, scale 0 to 100 (0 no effect, 100 complete control)
Summary of the method: as §1

ducksalad = assay: Test B flooded paddy test; format: in vivo, Heteranthera limosa; settings: 1000 g ai/ha, scale 0 to 100 (0 no effect, 100 complete control)
Summary of the method: as §1

[6] = postemergence, 125 g ai/ha; visual rating, scale 0 (no effect) to 100 (complete control)
[7] = postemergence, 500 g ai/ha; visual rating, scale 0 (no effect) to 100 (complete control)
[8] = 125 g ai/ha; 0 = no effect, 100 = complete control; preemergence
[9] = 500 g ai/ha; visual rating, 0 = no effect, 100 = complete control; preemergence
[10] = postemergence, 500 g ai/ha; scale 0 to 100, 0 is no effect, 100 is complete control
[11] = 125 g ai/ha; visual rating, scale 0 (no effect) to 100 (complete control); postemergence

CCOC(=O)c1cc(NC(=O)c2cc(C(C)(C)C)nn2CC)c(F)cc1F [Compound 250]
10: Blackgrass plant response rating (blackgrass; [6]) | Plant response rating, Foxtail, Giant (giant foxtail; [9]) | Plant response rating, Rice (rice [3]) | Plant response rating, Barnyardgrass (barnyardgrass [4]; [9]) | Surinam Grass plant response rating (0 to 100 scale) (Surinam grass; [8]) | Surinam Grass plant response rating (Surinam grass; [6]) | Plant response rating, Crabgrass, Large (large crabgrass; [9])
40: Blackgrass plant response rating (blackgrass; [7]) | Cocklebur plant response rating (cocklebur; [7]) | Wheat plant response rating (wheat; [10]) | Lambsquarters plant response rating (lambsquarters; [10]) | Oat, Wild plant response rating (wild oat; [10]) | Ducksalad plant response rating (ducksalad)
70: Sedge, Umbrella plant response rating [1] | Pigweed plant response rating (pigweed; [10])
50: Rice plant response rating (rice [2])
0: Morningglory plant response rating (0 to 100 scale) (morningglory; [8]) | Plant response rating, Morningglory (morningglory; [9]) | Corn plant response rating (0 to 100 scale) (corn; [8]) | Plant response rating, Corn (corn; [9]) | Cocklebur plant response rating (0 to 100 scale) (cocklebur; [8]) | Plant response rating, Cocklebur (cocklebur; [9]) | Foxtail, Giant plant response rating (0 to 100 scale) (giant foxtail; [8]) | Lambsquarters plant response rating (0 to 100 scale) (lambsquarters; [8]) | Lambsquarters plant response rating (lambsquarters; [6]) | Rice plant response rating (0 to 100 scale) (rice [3]) | Barnyardgrass plant response rating (0 to 100 scale) (barnyardgrass [4]; [8]) | Pigweed plant response rating (0 to 100 scale) (pigweed; [8]) | Crabgrass, Large plant response rating (0 to 100 scale) (large crabgrass; [8]) | Velvetleaf plant response rating (0 to 100 scale) (velvetleaf; [8]) | Barnyardgrass plant response rating (barnyardgrass [5])
30: Morningglory plant response rating (morningglory; [10]) | Corn plant response rating (corn; [10]) | Cocklebur plant response rating (cocklebur; [6]) | Foxtail, Giant plant response rating (giant foxtail; [10]) | Plant response rating, Surinam Grass (Surinam grass; [9]) | Pigweed plant response rating (pigweed; [6]) | Velvetleaf plant response rating (velvetleaf; [10])
20: Morningglory plant response rating (morningglory; [6]) | Corn plant response rating (corn; [6]) | Wheat plant response rating (wheat; [6]) | Foxtail, Giant plant response rating (giant foxtail; [6]) | Barnyardgrass plant response rating (barnyardgrass [4]; [6]) | Barnyardgrass plant response rating (barnyardgrass [4]; [7]) | Surinam Grass plant response rating (Surinam grass; [10]) | Crabgrass, Large plant response rating (large crabgrass; [6]) | Crabgrass, Large plant response rating (large crabgrass; [10]) | Plant response rating, Velvetleaf (velvetleaf; [9]) | Velvetleaf plant response rating (velvetleaf; [6]) | Oat, Wild plant response rating (wild oat; [6])

CCN(CC)C(=O)c1cc(NC(=O)c2cc(C(C)(C)C)nn2CC)c(F)cc1F [Compound 253]
10: Cocklebur plant response rating (cocklebur; [6]) | Plant response rating, Barnyardgrass (barnyardgrass [4]; [9]) | Barnyardgrass plant response rating (barnyardgrass [4]; [7]) | Surinam Grass plant response rating (0 to 100 scale) (Surinam grass; [8]) | Velvetleaf plant response rating (velvetleaf; [6]) | Velvetleaf plant response rating (velvetleaf; [10])
50: Rice plant response rating (rice [2])
30: Morningglory plant response rating (morningglory; [10]) | Wheat plant response rating (wheat; [10]) | Plant response rating, Foxtail, Giant (giant foxtail; [9]) | Lambsquarters plant response rating (lambsquarters; [10]) | Plant response rating, Surinam Grass (Surinam grass; [9]) | Pigweed plant response rating (pigweed; [10]) | Oat, Wild plant response rating (wild oat; [10])
20: Blackgrass plant response rating (blackgrass; [6]) | Blackgrass plant response rating (blackgrass; [7]) | Cocklebur plant response rating (cocklebur; [7]) | Wheat plant response rating (wheat; [6]) | Sedge, Umbrella plant response rating [1] | Lambsquarters plant response rating (lambsquarters; [6]) | Pigweed plant response rating (pigweed; [6]) | Crabgrass, Large plant response rating (0 to 100 scale) (large crabgrass; [8]) | Plant response rating, Velvetleaf (velvetleaf; [9]) | Oat, Wild plant response rating (wild oat; [6])
0: Morningglory plant response rating (0 to 100 scale) (morningglory; [8]) | Plant response rating, Morningglory (morningglory; [9]) | Morningglory plant response rating (morningglory; [6]) | Corn plant response rating (0 to 100 scale) (corn; [8]) | Plant response rating, Corn (corn; [9]) | Corn plant response rating (corn; [6]) | Corn plant response rating (corn; [10]) | Cocklebur plant response rating (0 to 100 scale) (cocklebur; [8]) | Plant response rating, Cocklebur (cocklebur; [9]) | Foxtail, Giant plant response rating (0 to 100 scale) (giant foxtail; [8]) | Foxtail, Giant plant response rating (giant foxtail; [6]) | Foxtail, Giant plant response rating (giant foxtail; [10]) | Lambsquarters plant response rating (0 to 100 scale) (lambsquarters; [8]) | Rice plant response rating (0 to 100 scale) (rice [3]) | Plant response rating, Rice (rice [3]) | Barnyardgrass plant response rating (0 to 100 scale) (barnyardgrass [4]; [8]) | Barnyardgrass plant response rating (barnyardgrass [4]; [6]) | Surinam Grass plant response rating (Surinam grass; [6]) | Surinam Grass plant response rating (Surinam grass; [10]) | Crabgrass, Large plant response rating (large crabgrass; [6]) | Crabgrass, Large plant response rating (large crabgrass; [10]) | Velvetleaf plant response rating (0 to 100 scale) (velvetleaf; [8]) | Barnyardgrass plant response rating (barnyardgrass [5])
60: Ducksalad plant response rating (ducksalad)

CCn1nc(C(C)(C)C)cc1C(=O)Nc1cc(OC)ccc1OC [Compound 297]
60: Plant response rating, Foxtail, Giant (giant foxtail; [9])
100: Corn plant response rating (corn; [10])
40: Plant response rating, Pigweed (pigweed; [9]) | Pigweed plant response rating (pigweed; [10])
30: Morningglory plant response rating (morningglory; [10]) | Foxtail, Giant plant response rating (giant foxtail; [10]) | Surinam Grass plant response rating (Surinam grass; [10]) | Crabgrass, Large plant response rating (large crabgrass; [10]) | Barnyardgrass plant response rating (barnyardgrass [5]) | Ducksalad plant response rating (ducksalad)
20: Blackgrass plant response rating (blackgrass; [10]) | Foxtail, Giant plant response rating (giant foxtail; [11]) | Lambsquarters plant response rating (lambsquarters; [10]) | Rice plant response rating (rice [2]) | Plant response rating, Barnyardgrass (barnyardgrass [4]; [9]) | Barnyardgrass plant response rating (barnyardgrass [4]; [10]) | Surinam Grass plant response rating (Surinam grass; [11]) | Plant response rating, Surinam Grass (Surinam grass; [9]) | Crabgrass, Large plant response rating (0 to 100 scale) (large crabgrass; [8]) | Crabgrass, Large plant response rating (large crabgrass; [11]) | Oat, Wild plant response rating (wild oat; [10])
80: Sedge, Umbrella plant response rating [1] | Plant response rating, Lambsquarters (lambsquarters; [9]) | Plant response rating, Crabgrass, Large (large crabgrass; [9])
0: Morningglory plant response rating (morningglory; [11]) | Corn plant response rating (0 to 100 scale) (corn; [8]) | Plant response rating, Corn (corn; [9]) | Cocklebur plant response rating (0 to 100 scale) (cocklebur; [8]) | Cocklebur plant response rating (cocklebur; [11]) | Plant response rating, Cocklebur (cocklebur; [9]) | Cocklebur plant response rating (cocklebur; [10]) | Wheat plant response rating (wheat; [11]) | Lambsquarters plant response rating (0 to 100 scale) (lambsquarters; [8]) | Rice plant response rating (0 to 100 scale) (rice [3]) | Barnyardgrass plant response rating (0 to 100 scale) (barnyardgrass [4]; [8]) | Pigweed plant response rating (0 to 100 scale) (pigweed; [8]) | Pigweed plant response rating (pigweed; [11]) | Velvetleaf plant response rating (velvetleaf; [11]) | Oat, Wild plant response rating (wild oat; [11])
10: Blackgrass plant response rating (blackgrass; [11]) | Morningglory plant response rating (0 to 100 scale) (morningglory; [8]) | Plant response rating, Morningglory (morningglory; [9]) | Corn plant response rating (corn; [11]) | Wheat plant response rating (wheat; [10]) | Foxtail, Giant plant response rating (0 to 100 scale) (giant foxtail; [8]) | Lambsquarters plant response rating (lambsquarters; [11]) | Plant response rating, Rice (rice [3]) | Barnyardgrass plant response rating (barnyardgrass [4]; [11]) | Surinam Grass plant response rating (0 to 100 scale) (Surinam grass; [8]) | Plant response rating, Velvetleaf (velvetleaf; [9]) | Velvetleaf plant response rating (velvetleaf; [10])
